Data set [1] is described as follows: clinical. The following applies: blood plasma of individual dialysis patients treated with acetic acid-containing dialysis fluid, dialysis time 4 hr. The procedure:
From ΔE of samples for calibration curve (W2 to 8, n=1), calibration curve (Y=aX+b, Y: ΔE, X: concentration μmol/L) was prepared by using least-squares method. No weighting of calibration curve was carried out. The range of quantitative analysis was from 20 to 2000 μmol/L.
(§1) The measured value of each sample was calculated by applying the peak area ratio or ΔE to the calibration curve, and rounding off to one decimal place.

Data set [2] can be described thus: clinical. The settings on record: blood plasma of individual dialysis patients treated with acetic acid-containing dialysis fluid, dialysis time 4 hr. The procedure:
Into a polypropylene tube, each sample (400 μL, samples for calibration curve and human blood plasma) was taken, and the internal standard solution IS-W1 (100 μL) was added thereto. Further, 10% sulfosalicylic acid (special grade, manufactured by Wako Pure Chemical Industries) solution (100 μL) was added thereto and stirred. To this solution was added MTBE (400 μL, Lot No. EPF0734, manufactured by Wako Pure Chemical Industries) and stirred for 1 minute. After that, the mixture was subjected to centrifugation (RX-200, manufactured by TOMY SEIKO) at 10000 rpm at 4° C. for 5 minutes, and the supernatant (200 μL) was taken into another glass vial. Then, to the supernatant was added N-methyl-N-(tert-butyldimethylsilyl)trifluoroacetamide (MTBSTFA) (5 to 10 μL, Lot No. BCBC7878, manufactured by ALDRICH) and heated with Block Heater (DTU-2B, manufactured by TAITEC) at 60° C. for 1 to 2 hours. After that, the resultant solution was measured by using GC/MS (JMS-AMII150, manufactured by JEOL) in the following conditions.
Samples were pretreated in the same method as that of “4. Pretreatment method and measurement method for samples” of Example 1, and then measured by GC/MS (5975C GCMSD, manufactured by Agilent) in the following conditions. […]
as §1
The source holds these as a separate data set.

Several values for one entry are separate records, joined by “and”; a condition that tells them apart may be missing. Equal values may be shown once.

Consider one compound from US20140315322A1 (FUSO PHARMACEUTICAL INDUSTRIES, LTD., priority 2011, published 2014).

In the case of `CC(=O)O` [acetic acid], the “Measured value, Enzyme method” value in data set [1] was 1620.3 µmol/L and 1653.5 µmol/L and 1896.4 µmol/L. Moreover, the concentration at 4 h in data set [1] (human, plasma, other: dialysis with a dialysis fluid containing acetic acid, Measured value, Enzyme method) turned out to be 1680 µM; in data set [2] (human, plasma, other: dialysis with a dialysis fluid containing acetic acid, Measured value, GC/MS method), 1790 µM. The “Measured value, GC/MS method” value in data set [2] was 1745.5 µmol/L and 1854.9 µmol/L and 1991.5 µmol/L.
